Literature values as cited in patent publication US20050250746A1, “Premenstrual dysphoric disorder medication” (priority 2004, published 2005).

How the values were obtained:
[1] = tested on: Severe Premenstrual Syndrome
Premenstrual Syndrome = conditions: review of published research
[2] = tested on: Severe Premenstrual Syndrome or Premenstrual Dysphoric Disorder; conditions: continuous or intermittent dosing

Cc1nnc2n1-c1ccc(Cl)cc1C(c1ccccc1)=NC2 [alpazolam, Alprazolam]
reduction in daily symptom report scores ([1]; double-blind, versus placebo): 50%

CC(=O)[C@H]1CC[C@H]2[C@@H]3CCC4=CC(=O)CC[C@]4(C)[C@H]3CC[C@]12C [progesterone]
effectiveness of progesterone therapy versus placebo ([1]; oral progesterone): no better than placebo | difference between progesterone and placebo (Premenstrual Syndrome): no clinically important difference between progesterone and placebo

CN[C@H]1CC[C@@H](c2ccc(Cl)c(Cl)c2)c2ccccc21 [seratraline, Sertraline]
improvement versus placebo group [2]: improved significantly more than the placebo group
